Where a name gives a salt, the structure may show the parent alone.

This test concerns the target hResistin (Homo sapiens (Human), UniProt Q9HD89). The experiment in a line: Evaluation of the ability to inhibit TNF-α secretion by hResistin (THP-1 cells, ELISA). The test is classed as cell-based. Particulars: for IC50: THP-1 human monocyte cell line, human recombinant Resistin; for inhibition at 5 µM: inhibition of TNF-α secretion by hResistin in THP-1 cells. On the procedure: Experimental Example: Evaluation of the Ability to Inhibit TNF-α Secretion by hResistin
Using THP-1 (human monocyte) cell line and ELISA system, the abilities to inhibit TNF-α secretion by hResistin (IC50) were evaluated for the compounds prepared in the above examples. The compounds target hResistin, and the abilities of the compounds to inhibit TNF-α secretion by human recombinant Resistin in human monocyte (THP-1) were evaluated. The abilities to inhibit TNF-α secretion were assessed by ELISA quantifying the amount of antibody with the enzyme as a marker using an antigen-antibody reaction.
Specifically, the cultured cells were spun down at 1,500 rpm for 2 minutes, the supernatant was removed and then the cells were re-suspended in 10 mL of complete RPMI-1640 medium. After counting the number of cells using Luna™ Automated Cell Counter, cells were plated into 96-well assay plates at 50 μL per well. The cells cultured for 24 hours were treated with the test substances in accordance with the concentration for 1 hour, and then the supernatant was collected and subjected to ELISA assay. In the ELISA assay, the absorbance at 450 nm (OD450 nm) was measured using Flexstation 3. The ability of each test substance to inhibit TNF-α secretion (IC50) and its inhibition at a concentration of 5 uM are shown in Table 1 below.
Background: In an ELISA, binding on a coated surface is turned into a signal by an enzyme label.

Chain of hResistin (Q9HD89 19-108): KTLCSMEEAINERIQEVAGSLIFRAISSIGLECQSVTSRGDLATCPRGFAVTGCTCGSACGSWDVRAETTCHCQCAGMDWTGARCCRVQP

Turning to `OCCN1CCN(c2nnc(-c3ccccc3)c3ccccc23)CC1` [Example 1, 2-(4-(4-phenylphthalazin-1-yl)piperazin-1-yl)ethanol], the IC50 is 1000 nM. As for `CC(=O)N1CCN(c2nnc(-c3ccc(C)cc3)c3ccccc23)CC1` [Example 2, 1-(4-(4-p-tolylphthalazin-1-yl)piperazin-1-yl)ethanone], the IC50 was 5000 nM. As to `OCCC1CCN(c2nnc(-c3ccc(Cl)cc3)c3ccccc23)CC1` [Example 4, 2-(1-(4-(4-chlorophenyl)phthalazin-1-yl)piperidin-4-yl)ethanol], the inhibition at 5 µM was found to be 40.4% and the IC50 was 1600 nM. On to `Clc1ccc(-c2nnc(N3CCC(N4CCOCC4)CC3)c3ccccc23)cc1` [Example 8, 4-(1-(4-(4-chlorophenyl)phthalazin-1-yl)piperidin-4-yl)morpholine], for which 5 µM produced 54.4% inhibition.

Regarding `COCCN1CCN(c2nnc(-c3ccc(Cl)cc3)c3ccccc23)CC1` [Example 9, 1-(4-chlorophenyl)-4-(4-(2-methoxyethyl)piperazin-1-yl)phthalazine], the IC50 worked out at 3700 nM. Regarding `O=C(C1CC1)N1CCN(c2nnc(-c3ccc(Cl)cc3)c3ccccc23)CC1` [Example 10, (4-(4-(4-chlorophenyl)phthalazin-1-yl)piperazin-1-yl)(cyclopropyl)methanone], the IC50 was found to be 1200 nM. Regarding `O=S(=O)(C1CCCC1)N1CCN(c2nnc(-c3ccc(Cl)cc3)c3ccccc23)CC1` [Example 34, 1-(4-chlorophenyl)-4-(4-(cyclopentylsulfonyl)piperazin-1-yl)phthalazine], the inhibition at 5 µM came out at 64.9% and the IC50 is 3000 nM. On the same counts, the results for `C[C@@H](N)C(=O)N1CCN(c2nnc(-c3ccc(Cl)cc3)c3ccccc23)CC1` [Example 36, (R)-2-amino-1-(4-(4-(4-chlorophenyl)phthalazin-1-yl)piperazin-1-yl)propan-1-one hydrochloride] are 75.8% and 2500 nM. For the compound `O=S(=O)(C1CC1)N1CCN(c2nnc(-c3ccc(Cl)cc3)c3ccccc23)CC1` [Example 37, 1-(4-chlorophenyl)-4-(4-(cyclopropylsulfonyl)piperazin-1-yl)phthalazine], the inhibition at 5 µM was determined as 52.9%. For the compound `NCCN1CCN(c2nnc(-c3ccc(Cl)cc3)c3ccccc23)CC1` [Example 38, 2-(4-(4-(4-chlorophenyl)phthalazin-1-yl)piperazin-1-yl)ethanamine hydrochloride], 5 µM produced 69.5% inhibition and the IC50 amounted to 7900 nM. Turning to `CC(C)(N)C(=O)N1CCN(c2nnc(-c3ccc(Cl)cc3)c3ccccc23)CC1` [Example 43, 2-amino-1-(4-(4-(4-chlorophenyl)phthalazin-1-yl)piperazin-1-yl)-2-methyl propan-1-one hydrochloride], the inhibition at 5 µM was 84.4% and the IC50 was 1300 nM. Compound `CC(C)(N)C(=O)N1CC=C(c2nnc(-c3ccc(Cl)cc3)c3ccccc23)CC1` [Example 44, 2-amino-1-(4-(4-(4-chlorophenyl)phthalazin-1-yl)-5,6-dihydropyridin-1(2H)-yl)-2-methylpropan-1-one hydrochloride] showed an inhibition at 5 µM of 50.5%. With `CC(=O)NC1CCN(c2nnc(-c3ccc(Cl)cc3)c3ccccc23)C1` (stereo not shown) [Example 45, N-(1-(4-(4-chlorophenyl)phthalazin-1-yl)pyrrolidin-3-yl)acetamide], the inhibition at 5 µM was determined as 77.6% and the IC50 worked out at 1600 nM. Take `CNC1CCN(c2nnc(-c3ccc(Cl)cc3)c3ccccc23)C1` (stereo not shown) [Example 46, 1-(4-(4-chlorophenyl)phthalazin-1-yl)-N-methylpyrrolidin-3-amine hydrochloride]: the inhibition at 5 µM stood at 97.8% and the IC50 was determined as 300 nM. For `CC(C)[C@H](N)C(=O)N1CCN(c2nnc(-c3ccc(Cl)cc3)c3ccccc23)CC1` [Example 47, (S)-2-amino-1-(4-(4-(4-chlorophenyl)phthalazin-1-yl)piperazin-1-yl)-3-methylbutan-1-one hydrochloride], the inhibition at 5 µM is 87.1% and the 50% inhibitory concentration (IC50) amounted to 700 nM. On to `Clc1ccc(-c2nnc(N3CCN(CC4CC4)CC3)c3ccccc23)cc1` [Example 50, 1-(4-chlorophenyl)-4-(4-(cyclopropylmethyl)piperazin-1-yl)phthalazine], for which the inhibition at 5 µM is 54%. With `O=C([C@H]1CCCN1)N1CCN(c2nnc(-c3ccc(Cl)cc3)c3ccccc23)CC1` [Example 51, (R)-(4-(4-(4-chlorophenyl)phthalazin-1-yl)piperazin-1-yl)(pyrrolidin-2-yl)methanone hydrochloride], at 5 µM the inhibition was 88.2% and the IC50 worked out at 800 nM. For `CNCCN(C)c1nnc(-c2ccc(Cl)cc2)c2ccccc12` [Example 53, N1-(4-(4-chlorophenyl)phthalazin-1-yl)-N1,N2-dimethylethane-1,2-diamine], at 5 µM the inhibition was 8.7%. Consider `CCNC1CCN(c2nnc(-c3ccc(Cl)cc3)c3ccccc23)C1` (stereo not shown) [Example 54, 1-(4-(4-chlorophenyl)phthalazin-1-yl)-N-ethylpyrrolidin-3-amine hydrochloride], for which at 5 µM the inhibition was 70% and the IC50 turned out to be 1900 nM. `CNCCCN(C)c1nnc(-c2ccc(Cl)cc2)c2ccccc12` [Example 55, N1-(4-(4-chlorophenyl)phthalazin-1-yl)-N1,N3-dimethylpropane-1,3-diamine hydrochloride]: testing at 5 µM gave an inhibition of 13.1%. Turning to `O=C(C1CC1)N1CCC(c2nnc(-c3ccc(Cl)cc3)c3ccccc23)CC1` [Example 56, (4-(4-(4-chlorophenyl)phthalazin-1-yl)piperidin-1-yl)(cyclopropyl)methanone], testing at 5 µM gave an inhibition of 26.2%.

With `CN[C@@H]1CCCN(c2nnc(-c3ccc(Cl)cc3)c3ccccc23)C1` [Example 57, (R)-1-(4-(4-chlorophenyl)phthalazin-1-yl)-N-methylpiperidin-3-amine hydrochloride], the inhibition at 5 µM turned out to be 92.8% and the IC50 stood at 1000 nM. On the same counts, the results for `NC1(C(=O)N2CCN(c3nnc(-c4ccc(Cl)cc4)c4ccccc34)CC2)CCCC1` [Example 58, (1-aminocyclopentyl)(4-(4-(4-chlorophenyl)phthalazin-1-yl)piperazin-1-yl)methanone hydrochloride] are 77.3% and 2900 nM. `O=C([C@@H]1CCCN1)N1CCN(c2nnc(-c3ccc(Cl)cc3)c3ccccc23)CC1` [Example 59, (S)-(4-(4-(4-chlorophenyl)phthalazin-1-yl)piperazin-1-yl)(pyrrolidin-2-yl)methanone hydrochloride] came in with an inhibition at 5 µM of 60.3%. For the compound `CC[C@H](C)[C@H](N)C(=O)N1CCN(c2nnc(-c3ccc(Cl)cc3)c3ccccc23)CC1` [Example 60, (2S,3S)-2-amino-1-(4-(4-(4-chlorophenyl)phthalazin-1-yl)piperazin-1-yl)-3-methylpentan-1-one hydrochloride], testing at 5 µM gave an inhibition of 91.2% and the IC50 stood at 1900 nM. `CC(C)[C@H](N)C(=O)N1CCC(c2nnc(-c3ccc(Cl)cc3)c3ccccc23)CC1` [Example 61, (S)-2-amino-1-(4-(4-(4-chlorophenyl)phthalazin-1-yl)piperidin-1-yl)-3-methylbutan-1-one hydrochloride] showed an inhibition at 5 µM of 21.2%.

As to `O=C([C@@H]1CCCN1)N1CCC(c2nnc(-c3ccc(Cl)cc3)c3ccccc23)CC1` [Example 62, (S)-(4-(4-(4-chlorophenyl)phthalazin-1-yl)piperidin-1-yl)(pyrrolidin-2-yl)methanone hydrochloride], the inhibition at 5 µM turned out to be 24.8%. Same read-out and setting: for `CC[C@H](C)[C@H](N)C(=O)N1CCC(c2nnc(-c3ccc(Cl)cc3)c3ccccc23)CC1` [Example 63, (2S,3S)-2-amino-1-(4-(4-(4-chlorophenyl)phthalazin-1-yl)piperidin-1-yl)-3-methylpentan-1-one hydrochloride] the value was 53.6%; for `CC(C)(N)C(=O)N1CCC(c2nnc(-c3ccc(Cl)cc3)c3ccccc23)CC1` [Example 64, 2-amino-1-(4-(4-(4-chlorophenyl)phthalazin-1-yl)piperidin-1-yl)-2-methylpropan-1-one hydrochloride], 23.9%; for `CCOC(=O)CN1CCN(c2nnc(-c3ccc(Cl)cc3)c3ccccc23)CC1` [Example 65, ethyl 2-(4-(4-(4-chlorophenyl)phthalazin-1-yl)piperazin-1-yl)acetate], 2.4%. `Clc1ccc(-c2nnc(N3CCCN(Cc4ccccc4)CC3)c3ccccc23)cc1` [Example 67, 1-(4-benzyl-1,4-diazepan-1-yl)-4-(4-chlorophenyl)phthalazine] showed an inhibition at 5 µM of 38.9%. `CC(C)[C@H](N)C(=O)N1CCN(c2nnc(-c3ccc(Cl)cc3)c3ccccc23)CC1(C)C` [Example 69, (S)-2-amino-1-(4-(4-(4-chlorophenyl)phthalazin-1-yl)-2,2-dimethylpiperazin-1-yl)-3-methylbutan-1-one hydrochloride] gave an inhibition at 5 µM of 16.1%.

Turning to `C[C@@H]1CN(c2nnc(-c3ccc(Cl)cc3)c3ccccc23)CCN1C(=O)C(C)(C)N` [Example 70, (R)-2-amino-1-(4-(4-(4-chlorophenyl)phthalazin-1-yl)-2-methylpiperazin-1-yl)-2-methylpropan-1-one hydrochloride], the inhibition at 5 µM amounted to 61.4%.

What is called IC50 is the midpoint of a concentration-inhibition curve. As usually defined, the inhibition is the drop in the measured response relative to a control, in per cent. A high value points to strong suppression.
